Assay results published in ChEMBL document CHEMBL5226369, “Tetracyclic Steroids Bearing a Bicyclo[4.4.1] Ring System as Potent Antiosteoporosis Agents from the Deep-Sea-Derived Fungus Rhizopus sp. W23” (J Nat Prod, 2023).

How the values were obtained:
Type in all cases: functional, cell-based
PANC-1 = assay: Antiproliferative activity against human PANC-1 cells by MTT assay
HCT-116 = assay: Antiproliferative activity against human HCT-116 cells by MTT assay
A-431 = assay: Antiproliferative activity against human A-431 cells by MTT assay
NCI-H460 = assay: Antiproliferative activity against human NCI-H460 cells by MTT assay
PC-3 = assay: Antiproliferative activity against human PC-3 cells by MTT assay
A549 = assay: Antiproliferative activity against human A549 cells by MTT assay
BGC-823 = assay: Antiproliferative activity against human BGC-823 cells by MTT assay
[1] = Antiproliferative activity against human QGY-7701 cells by MTT assay; conditions: QGY7701
A-375 = assay: Antiproliferative activity against human A-375 cells by MTT assay
MCF7 = assay: Antiproliferative activity against human MCF7 cells by MTT assay
HL-60 = assay: Antiproliferative activity against human HL-60 cells by MTT assay
MDA-MB-231 = assay: Antiproliferative activity against human MDA-MB-231 cells by MTT assay
K562 = assay: Antiproliferative activity against human K562 cells by MTT assay
KYSE-450 = assay: Antiproliferative activity against human KYSE-450 cells by MTT assay
NCI-H1299 = assay: Antiproliferative activity against human NCI-H1299 cells by MTT assay
U2OS = assay: Antiproliferative activity against human U2OS cells by MTT assay
[2] = Antiproliferative activity against human SKGT4 cells by MTT assay
HepG2 = assay: Antiproliferative activity against human HepG2 cells by MTT assay

| IC50 (PANC-1) | IC50 (HCT-116) | IC50 (A-431) | IC50 (NCI-H460) | IC50 (PC-3) | IC50 (A549) | IC50 (BGC-823) | IC50 (A-375) | IC50 (MCF7) | IC50 (HL-60) | IC50 (MDA-MB-231) | IC50 (K562) | IC50 (NCI-H1299) | IC50 (U2OS) | IC50 (HepG2) | SMILES | IC50 [1] | IC50 (KYSE-450) | IC50 [2] |
| --- | --- | --- | --- | --- | --- | --- | --- | --- | --- | --- | --- | --- | --- | --- | --- | --- | --- | --- |
| > 20 µM | > 20 µM | > 20 µM | > 20 µM | > 20 µM | > 20 µM | > 20 µM | > 20 µM | > 20 µM | > 20 µM | > 20 µM | > 20 µM | > 20 µM | > 20 µM | > 20 µM | CO[C@@H](/C=C(\C)[C@H]1CC[C@H]2C3=CC(=O)[C@H]4CC(=CC[C@H](O)C4)[C@H]3CC[C@]12C)[C@@H](C)O | > 20 µM | > 20 µM | > 20 µM |
| > 20 µM | > 20 µM | > 20 µM | > 20 µM | > 20 µM | > 20 µM | > 20 µM | > 20 µM | > 20 µM | > 20 µM | > 20 µM | > 20 µM | > 20 µM | > 20 µM | > 20 µM | CC(=O)OC(C)C(O)/C=C(\C)[C@H]1CC[C@H]2C3=CC(=O)[C@H]4CC(=CC[C@H](O)C4)[C@H]3CC[C@]12C (stereo not given in full) | > 20 µM | > 20 µM | > 20 µM |
| > 20 µM | > 20 µM | > 20 µM | > 20 µM | > 20 µM | > 20 µM | > 20 µM | > 20 µM | > 20 µM | > 20 µM | > 20 µM | > 20 µM | > 20 µM | > 20 µM | > 20 µM | C/C(=C\[C@@H](O)[C@@H](C)O)[C@H]1CC[C@H]2C3=CC(=O)[C@H]4CC(=CC[C@H](O)C4)[C@H]3CC[C@]12C | > 20 µM | > 20 µM | > 20 µM |
| > 20 µM | > 20 µM | > 20 µM | > 20 µM | > 20 µM | > 20 µM | > 20 µM | > 20 µM | > 20 µM | > 20 µM | > 20 µM | > 20 µM | > 20 µM | > 20 µM | > 20 µM | CC(=O)OC(/C=C(\C)[C@H]1CC[C@H]2C3=CC(=O)[C@H]4CC(=CC[C@H](O)C4)[C@H]3CC[C@]12C)C(C)O (stereo not given in full) | > 20 µM | > 20 µM | > 20 µM |
| > 20 µM | > 20 µM | > 20 µM | > 20 µM | > 20 µM | > 20 µM | > 20 µM | > 20 µM | > 20 µM | > 20 µM | > 20 µM | > 20 µM | > 20 µM | > 20 µM | > 20 µM | COC(/C=C(\C)[C@H]1CC[C@H]2C3=CC(=O)[C@H]4CC(=CC[C@H](O)C4)[C@H]3CC[C@]12C)C(C)O (stereo not given in full) | > 20 µM | > 20 µM | > 20 µM |
| > 20 µM | > 20 µM | > 20 µM | > 20 µM | > 20 µM | > 20 µM | > 20 µM | > 20 µM | > 20 µM | > 20 µM | > 20 µM | > 20 µM | > 20 µM | > 20 µM | > 20 µM | C/C=C/[C@@H](O)[C@](C)(O)[C@H]1CC[C@H]2C3=CC(=O)[C@H]4CC(=CC[C@H](O)C4)[C@H]3CC[C@]12C | > 20 µM | > 20 µM | > 20 µM |
| > 20 µM | > 20 µM | > 20 µM | > 20 µM | > 20 µM | > 20 µM | > 20 µM | > 20 µM | > 20 µM | > 20 µM | > 20 µM | > 20 µM | > 20 µM | > 20 µM | > 20 µM | CC(=O)/C=C/[C@@](C)(O)[C@H]1CC[C@H]2C3=CC(=O)[C@H]4CC(=CC[C@H](O)C4)[C@H]3CC[C@@]21C | > 20 µM | > 20 µM | > 20 µM |
| > 20 µM | > 20 µM | > 20 µM | > 20 µM | > 20 µM | > 20 µM | > 20 µM | > 20 µM | > 20 µM | > 20 µM | > 20 µM | > 20 µM | > 20 µM | > 20 µM | > 20 µM | C/C(=C\C(=O)C(C)O)[C@H]1CC[C@H]2C3=CC(=O)[C@H]4CC(=CC[C@H](O)C4)[C@H]3CC[C@]12C (stereo not given in full) | > 20 µM | > 20 µM | > 20 µM |
| > 20 µM | > 20 µM | > 20 µM | > 20 µM | > 20 µM | > 20 µM | > 20 µM | > 20 µM | > 20 µM | > 20 µM | > 20 µM | > 20 µM | > 20 µM | > 20 µM | > 20 µM | CO[C@H](/C=C(\C)[C@H]1CC[C@H]2C3=CC(=O)[C@H]4CC(=CC[C@H](O)C4)[C@H]3CC[C@]12C)[C@H](C)O | > 20 µM | > 20 µM | > 20 µM |
| > 20 µM | > 20 µM | > 20 µM | > 20 µM | > 20 µM | > 20 µM | > 20 µM | > 20 µM | > 20 µM | > 20 µM | > 20 µM | > 20 µM | > 20 µM | > 20 µM | > 20 µM | C/C=C/[C@H](O)[C@](C)(O)[C@H]1CC[C@H]2C3=CC(=O)[C@H]4CC(=CC[C@H](O)C4)[C@H]3CC[C@]12C | > 20 µM | > 20 µM | > 20 µM |
| > 20 µM | > 20 µM | > 20 µM | > 20 µM | > 20 µM | > 20 µM | > 20 µM | > 20 µM | > 20 µM | > 20 µM | > 20 µM | > 20 µM | > 20 µM | > 20 µM | > 20 µM | CC(=O)/C=C/[C@](C)(O)[C@H]1CC[C@H]2C3=CC(=O)[C@H]4CC(=CC[C@H](O)C4)[C@H]3CC[C@@]21C | > 20 µM | > 20 µM | > 20 µM |
| > 20 µM | > 20 µM | > 20 µM | > 20 µM | > 20 µM | > 20 µM | > 20 µM | > 20 µM | > 20 µM | > 20 µM | > 20 µM | > 20 µM | > 20 µM | > 20 µM | > 20 µM | C/C(=C\[C@H](O)[C@@H](C)O)[C@H]1CC[C@H]2C3=CC(=O)[C@H]4CC(=CC[C@H](O)C4)[C@H]3CC[C@]12C | > 20 µM | > 20 µM | > 20 µM |
| > 20 µM | > 20 µM | > 20 µM | > 20 µM | > 20 µM | > 20 µM | > 20 µM | > 20 µM | > 20 µM | > 20 µM | > 20 µM | > 20 µM | > 20 µM | > 20 µM | > 20 µM | C/C(=C\C(=O)O)[C@H]1CC[C@H]2C3=CC(=O)[C@H]4CC(=CC[C@H](O)C4)[C@H]3CC[C@]12C | > 20 µM | > 20 µM | > 20 µM |
| > 20 µM | > 20 µM | > 20 µM | > 20 µM | > 20 µM | > 20 µM | > 20 µM | > 20 µM | > 20 µM | > 20 µM | > 20 µM | > 20 µM | > 20 µM | > 20 µM | > 20 µM | C/C=C/[C@H](OC(C)=O)[C@](C)(O)[C@H]1CC[C@H]2C3=CC(=O)[C@H]4CC(=CC[C@H](O)C4)[C@H]3CC[C@]12C | > 20 µM | > 20 µM | > 20 µM |
| > 20 µM | > 20 µM | > 20 µM | > 20 µM | > 20 µM | > 20 µM | > 20 µM | > 20 µM | > 20 µM | > 20 µM | > 20 µM | > 20 µM | > 20 µM | > 20 µM | > 20 µM | C[C@]12CC[C@@H]3C4=CC[C@H](O)C[C@H](C4)C(=O)C=C3[C@@H]1CC[C@@H]2[C@](C)(O)CC(=O)O | > 20 µM | > 20 µM | > 20 µM |
